# Laboratory results published in US10597388B2, “Pyridazinone herbicides” (FMC CORPORATION, priority 2014, dated 2020).
# Key:
# Assay in all cases: Test D controlled growth environment herbicide test, pre- and postemergence
# Type in all cases: in vivo
# [1] = test system: deadnettle (henbit deadnettle, Lamium amplexicaule)
# Method in brief: (§1)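 Pre-emergence: seeds sown in silt loam soil were sprayed with compound in a non-phytotoxic solvent mix containing surfactant. Post-emergence: plants at 2 to 18 cm (1- to 4-leaf stage) in peat moss/vermiculite medium got the same formulation. Visual 0–100 rating versus controls after 14 to 21 d.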
# [2] = test system: ryegrass, Italian (Italian ryegrass, Lolium multiflorum)
# Method in brief: as §1
# [3] = test system: field violet (Viola arvensis)
# Method in brief: as §1
# [4] = test system: Russian thistle (Salsola kali)
# Method in brief: as §1
# [5] = test system: canarygrass (Phalaris minor)
# Method in brief: as §1
# [6] = test system: oilseed rape (Brassica napus)
# Method in brief: as §1
# [7] = test system: speedwell (bird's-eye speedwell, Veronica persica)
# Method in brief: as §1
# kochia (Kochia scoparia) = test system: kochia (Kochia scoparia)
# Method in brief: as §1
# [8] = test system: bluegrass (annual bluegrass, Poa annua)
# Method in brief: as §1
# [9] = test system: barley, spring (spring barley, Hordeum vulgare)
# Method in brief: as §1
# [10] = test system: radish, wild (wild radish, Raphanus raphanistrum)
# Method in brief: as §1
# [11] = test system: buckwheat, wild (wild buckwheat, Polygonum convolvulus)
# Method in brief: as §1
# [12] = test system: galium (catchweed bedstraw, Galium aparine)
# Method in brief: as §1
# [13] = Postemergence, 31 g ai/ha, scale 0 to 100 (0 no effect, 100 complete control)
# [14] = Postemergence, 125 g ai/ha, visual rating on scale 0 (no effect) to 100 (complete control), 14 to 21 d
# [15] = Postemergence, 250 g ai/ha, scale 0 to 100 (0 no effect, 100 complete control)
# [16] = Preemergence, 62 g ai/ha, scale 0 to 100 (0 no effect, 100 complete control)
# [17] = Preemergence, 125 g ai/ha, scale 0 to 100 (0 no effect, 100 complete control)
# [18] = Preemergence, 250 g ai/ha, scale 0 to 100, 0 no effect, 100 complete control
# [19] = postemergence, 62 g ai/ha, scale 0 to 100, 0 no effect, 100 complete control
compound,measurement,setting,value
Cc1nn(C)c(=O)c(-c2ccc(F)c3ccccc23)c1O [Compound 41],Deadnettle plant response rating,[1]; [13],85
same,"Plant response rating, Deadnettle",[1]; [14],80
same,"Plant response rating, Deadnettle",[1]; [15],100
same,"Plant response rating (scale of 0 to 100), Deadnettle","[1]; Preemergence, 31 g ai/ha",35
same,"Plant response rating, Deadnettle",[1]; [16],90
same,"Plant response rating, Deadnettle",[1]; [17],100
same,"Plant response rating, Deadnettle",[1]; [18],100
same,"Plant response rating, Deadnettle",[1]; [19],100
same,"Ryegrass, Italian plant response rating",[2]; [13],80
same,"Plant response rating, Ryegrass, Italian",[2]; [14],85
same,"Plant response rating, Ryegrass, Italian",[2]; [15],90
same,"Plant response rating (scale of 0 to 100), Ryegrass, Italian","[2]; Preemergence, 31 g ai/ha",95
same,"Plant response rating, Ryegrass, Italian",[2]; [16],100
same,"Plant response rating, Ryegrass, Italian",[2]; [17],100
same,"Plant response rating, Ryegrass, Italian",[2]; [18],100
same,"Plant response rating, Ryegrass, Italian",[2]; [19],85
same,Field Violet plant response rating,[3]; [13],100
same,"Plant response rating, Field Violet",[3]; [14],90
same,"Plant response rating, Field Violet",[3]; [15],100
same,"Plant response rating (scale of 0 to 100), Field Violet","[3]; Preemergence, 31 g ai/ha",95
same,"Plant response rating, Field Violet",[3]; [16],90
same,"Plant response rating, Field Violet",[3]; [17],100
same,"Plant response rating, Field Violet",[3]; [18],100
same,"Plant response rating, Field Violet",[3]; [19],90
same,Russian Thistle plant response rating,[4]; [13],70
same,"Plant response rating, Russian Thistle",[4]; [14],75
same,"Plant response rating, Russian Thistle",[4]; [15],75
same,"Plant response rating (scale of 0 to 100), Russian Thistle","[4]; Preemergence, 31 g ai/ha",25
same,"Plant response rating, Russian Thistle",[4]; [16],20
same,"Plant response rating, Russian Thistle",[4]; [17],40
same,"Plant response rating, Russian Thistle",[4]; [18],70
same,"Plant response rating, Russian Thistle",[4]; [19],70
same,Canarygrass plant response rating,[5]; [13],55
same,"Plant response rating, Canarygrass",[5]; [14],80
same,"Plant response rating, Canarygrass",[5]; [15],80
same,"Plant response rating (scale of 0 to 100), Canarygrass","[5]; Preemergence, 31 g ai/ha",90
same,"Plant response rating, Canarygrass",[5]; [16],90
same,"Plant response rating, Canarygrass",[5]; [17],90
same,"Plant response rating, Canarygrass",[5]; [18],95
same,"Plant response rating, Canarygrass",[5]; [19],70
same,Oilseed Rape plant response rating,[6]; [13],0
same,"Plant response rating, Oilseed Rape",[6]; [14],25
same,"Plant response rating, Oilseed Rape",[6]; [15],55
same,"Plant response rating (scale of 0 to 100), Oilseed Rape","[6]; Preemergence, 31 g ai/ha",0
same,"Plant response rating, Oilseed Rape",[6]; [16],5
same,"Plant response rating, Oilseed Rape",[6]; [17],25
same,"Plant response rating, Oilseed Rape",[6]; [18],15
same,"Plant response rating, Oilseed Rape",[6]; [19],5
same,Speedwell plant response rating,[7]; [13],100
same,"Plant response rating, Speedwell",[7]; [14],100
same,"Plant response rating, Speedwell",[7]; [15],100
same,"Plant response rating (scale of 0 to 100), Speedwell","[7]; Preemergence, 31 g ai/ha",100
same,"Plant response rating, Speedwell",[7]; [16],95
same,"Plant response rating, Speedwell",[7]; [17],100
same,"Plant response rating, Speedwell",[7]; [18],100
same,"Plant response rating, Speedwell",[7]; [19],100
same,Kochia plant response rating,kochia (Kochia scoparia); [13],85
same,"Plant response rating, Kochia",kochia (Kochia scoparia); [14],85
same,"Plant response rating, Kochia",kochia (Kochia scoparia); [15],100
same,"Plant response rating (scale of 0 to 100), Kochia","kochia (Kochia scoparia); Preemergence, 31 g ai/ha",80
same,"Plant response rating, Kochia",kochia (Kochia scoparia); [16],75
same,"Plant response rating, Kochia",kochia (Kochia scoparia); [17],80
same,"Plant response rating, Kochia",kochia (Kochia scoparia); [18],100
same,"Plant response rating, Kochia",kochia (Kochia scoparia); [19],95
same,Bluegrass plant response rating,[8]; [13],15
same,"Plant response rating, Bluegrass",[8]; [14],25
same,"Plant response rating, Bluegrass",[8]; [15],35
same,"Plant response rating (scale of 0 to 100), Bluegrass","[8]; Preemergence, 31 g ai/ha",70
same,"Plant response rating, Bluegrass",[8]; [16],75
same,"Plant response rating, Bluegrass",[8]; [17],80
same,Bluegrass plant response rating,[8]; [18],90
same,"Plant response rating, Bluegrass",[8]; [19],30
same,"Plant response rating, Barley, Spring",[9]; [13],0
same,"Plant response rating, Barley, Spring",[9]; [14],10
same,"Plant response rating, Barley, Spring",[9]; [15],20
same,"Plant response rating (scale of 0 to 100), Barley, Spring","[9]; Preemergence, 31 g ai/ha",0
same,"Plant response rating, Barley, Spring",[9]; [16],0
same,"Plant response rating, Barley, Spring",[9]; [17],30
same,"Barley, Spring plant response rating",[9]; [18],60
same,"Plant response rating, Barley, Spring",[9]; [19],5
same,"Radish, Wild plant response rating",[10]; [13],90
same,"Plant response rating, Radish, Wild",[10]; [14],90
same,"Plant response rating, Radish, Wild",[10]; [15],95
same,"Plant response rating (scale of 0 to 100), Radish, Wild","[10]; Preemergence, 31 g ai/ha",25
same,"Plant response rating, Radish, Wild",[10]; [16],85
same,"Plant response rating, Radish, Wild",[10]; [17],95
same,"Plant response rating, Radish, Wild",[10]; [18],100
same,"Plant response rating, Radish, Wild",[10]; [19],80
same,"Buckwheat, Wild plant response rating",[11]; [13],80
same,"Plant response rating, Buckwheat, Wild",[11]; [14],95
same,"Plant response rating, Buckwheat, Wild",[11]; [15],100
same,"Plant response rating (scale of 0 to 100), Buckwheat, Wild","[11]; Preemergence, 31 g ai/ha",35
same,"Plant response rating, Buckwheat, Wild",[11]; [16],55
same,"Plant response rating, Buckwheat, Wild",[11]; [17],65
same,"Plant response rating, Buckwheat, Wild",[11]; [18],75
same,"Plant response rating, Buckwheat, Wild",[11]; [19],90
same,Galium plant response rating,[12]; [13],100
same,"Plant response rating, Galium",[12]; [14],100
same,"Plant response rating, Galium",[12]; [15],100
same,"Plant response rating (scale of 0 to 100), Galium","[12]; Preemergence, 31 g ai/ha",75
same,"Plant response rating, Galium",[12]; [16],85
same,"Plant response rating, Galium",[12]; [17],95
same,"Plant response rating, Galium",[12]; [18],100
same,"Plant response rating, Galium",[12]; [19],100
